Values of other authors as cited in patent US20140005605A1, “USE OF QUORUM SENSING INHIBITORS AND BIOFILM DISPERSING AGENTS FOR CONTROLLING BIOFILM-ASSOCIATED IMPLANTABLE MEDICAL DEVICE RELATED INFECTIONS” (priority 2012, published 2014).

Assays:
[1] = test system: biofilms formed by Staphylococcus aureus
[2] = test system: biofilms formed by Pseudomonas aeruginosa
[3] = test system: Pseudomonas aeruginosa; conditions: mice treated with the QSI; promoted clearance by the murine immune system

Row | SMILES | effectiveness against biofilms [1] | effectiveness against biofilms [2] | biofilm formation [3]
1 | CCCCCCC/C=C\C(=O)O [cis-2-decanoic acid] | effective | effective | –
2 | O=[N+]([O-])c1cc[n+]([O-])cc1 [4-nitro-pyridine-N-oxide] | effective | effective | –
3 | O=C1C=C(Br)/C(=C/Br)O1 [furanone C-30] | – | – | inhibited biofilm formation
